The values below come from patent US10022453B2 (BAYER PHARMA AKTIENGESELLSCHAFT, priority 2013, dated 2018).

The target of data set [1] is T1, human kinesin spindle protein KSP/Eg5 (Homo sapiens, UniProt P52732).
T1 construct: The motor domain of the human kinesin spindle protein KSP/Eg5; purchased tebu-bio/Cytoskeleton Inc 027EG01-XL
T1 sequence (P52732 18-359 limits assumed): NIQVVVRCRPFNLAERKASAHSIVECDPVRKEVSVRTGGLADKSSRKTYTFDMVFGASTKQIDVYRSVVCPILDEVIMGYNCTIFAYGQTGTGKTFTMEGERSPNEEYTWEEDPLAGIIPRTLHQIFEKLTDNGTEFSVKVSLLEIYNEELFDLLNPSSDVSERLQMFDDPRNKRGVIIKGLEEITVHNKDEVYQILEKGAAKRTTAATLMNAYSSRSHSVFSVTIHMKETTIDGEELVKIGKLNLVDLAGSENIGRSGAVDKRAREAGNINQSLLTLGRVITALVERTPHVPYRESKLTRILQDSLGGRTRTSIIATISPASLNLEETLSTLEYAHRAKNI
Briefly: Inhibition of the kinesin spindle protein KSP/Eg5 (ATPase, malachite green). The note with it: 10 nM KSP motor domain, 500 μM ATP, 2 h RT. Format: biochemical. The procedure: C-1b Determination of the Inhibition of the Kinesin Spindle Protein KSP/Eg5 by Selected Examples
The motor domain of the human kinesin spindle protein KSP/Eg5 (from tebu-bio/Cytoskeleton Inc, No. 027EG01-XL) is incubated at a concentration of 10 nM with 50 μg/ml taxol- (from Sigma No. T7191-5MG) stabilized microtubuli (bovine or porcine, from tebu-bio/Cytoskeleton Inc) for 5 min at RT in 15 mM PIPES, pH 6.8 (5 mM MgCl2 and 10 mM DTT, from Sigma). The freshly prepared mixture is aliquoted into a 384-well MTP. The inhibitors to be examined at concentrations of 1.0×10^−6 M to 1.0×10^−13 and ATP (final concentration 500 μM, from Sigma) are then added. Incubation is at RT for 2 h. ATPase activity is detected by detecting the inorganic phosphate formed using malachite green (from Biomol). […] The individual data of the dose-activity curve are eight-fold determinations. The IC50 values are means of three independent experiments.

A short description of data set [2]: Cell permeability, flux assay using Caco-2 cells. The note with it: human, Caco-2. How it is done: C-3 In Vitro Tests for Determining Cell Permeability
The cell permeability of a substance can be investigated by means of in vitro testing in a flux assay using Caco-2 cells [M. D. Troutman and D. R. Thakker, Pharm. […] For this purpose, the cells were cultured for 15-16 days on 24-well filter plates. For the determination of permeation, the respective working example was applied in a HEPES buffer to the cells either apically (A) or basally (B) and incubated for 2 hours. After 0 hours and after 2 hours, samples were taken from the cis and trans compartments. The samples were separated by HPLC (Agilent 1200, Böblingen, Germany) using reverse phase columns.
Of critical importance for toxophores which are released intracellularly is the permeability from B to A [Papp(B-A)] and the ratio of Papp(B-A) to Papp(A-B) (efflux ratio): the lower this permeability, the slower the active and passive transport processes of the substance through the monolayer of Caco-2 cells.

With `C[C@H](NC(=O)CCNC(=O)[C@@H](N)CCN(C(=O)CO)[C@@H](c1nc(-c2cc(F)ccc2F)cn1Cc1ccccc1)C(C)(C)C)C(=O)N[C@@H](CCCNC(N)=O)C(=O)Nc1ccc(NC(=O)CN2C(=O)CC(SC[C@H](N)C(=O)O)C2=O)cc1` (stereo partly drawn) [Example 65, N-{(2S)-2-Amino-4-[{(1R)-1-[1-benzyl-4-(2,5-difluorophenyl)-1H-imidazol-2-yl]-2,2-dimethylpropyl}(glycoloyl)amino]butanoyl}-beta-alanyl-L-alanyl-N-(4-{[(3-{[(2R)-2-amino-2-carboxyethyl]sulphanyl}-2,5-dioxopyrrolidin-1-yl)acetyl]amino}phenyl)-N^5-carbamoyl-L-ornithinamide], the IC50 in data set [1] amounted to 2.03 nM. Also, in data set [2], the Papp B→A at 2 h came out at 0.12 ×10⁻⁶ cm/s and the efflux ratio at 2 h was found to be 2.3.

Compound `CC(C)(C)[C@H](c1nc(-c2cc(F)ccc2F)cn1Cc1ccccc1)N(CC[C@H](N)C(=O)NCCC(=O)Nc1ccc(N2C(=O)CC(SC[C@H](N)C(=O)O)C2=O)cc1)C(=O)CO` (stereo partly drawn) [Example 66, S-(1-{4-[(N-{(2S)-2-Amino-4-[{(1R)-1-[1-benzyl-4-(2,5-difluorophenyl)-1H-imidazol-2-yl]-2,2-dimethylpropyl}(glycoloyl)amino]butanoyl}-beta-alanyl)amino]phenyl}-2,5-dioxopyrrolidin-3-yl)-L-cysteine] had a half-maximal inhibitory concentration (IC50) in data set [1] of 8.08 nM. In addition, in data set [2], the Papp B→A at 2 h was determined as 2.7 ×10⁻⁶ cm/s and the efflux ratio at 2 h came out at 12.

In turn, `CC(C)(C)[C@H](c1nc(-c2cc(F)ccc2F)cn1Cc1ccccc1)N(CC[C@H](N)C(=O)N[C@H]1CCC[C@H]1C(=O)NCCN1C(=O)CC(SC[C@H](N)C(=O)O)C1=O)C(=O)CO` (stereo partly drawn) [Example 67, S-{1-[2-({[(1R,2S)-2-({(2S)-2-Amino-4-[{(1R)-1-[1-benzyl-4-(2,5-difluorophenyl)-1H-imidazol-2-yl]-2,2-dimethylpropyl}(glycoloyl)amino]butanoyl}amino)cyclopentyl]carbonyl}amino)ethyl]-2,5-dioxopyrrolidin-3-yl}-L-cysteine] came in with an IC50 in data set [1] of 8.07 nM. Further, in data set [2], the Papp B→A at 2 h was determined as 2.5 ×10⁻⁶ cm/s and the efflux ratio at 2 h amounted to 15.

`C[C@H](NC(=O)CCNC(=O)[C@@H](N)CCN(C(=O)CO)[C@@H](c1nc(-c2cc(F)ccc2F)cn1Cc1ccccc1)C(C)(C)C)C(=O)N[C@@H](CCCNC(N)=O)C(=O)Nc1ccc(N2C(=O)CC(SC[C@H](N)C(=O)O)C2=O)cc1` (stereo partly drawn) [Example 68, N-{(2S)-2-Amino-4-[{(1R)-1-[1-benzyl-4-(2,5-difluorophenyl)-1H-imidazol-2-yl]-2,2-dimethylpropyl}(glycoloyl)amino]butanoyl}-beta-alanyl-L-alanyl-N-[4-(3-{[(2R)-2-amino-2-carboxyethyl]sulphanyl}-2,5-dioxopyrrolidin-1-yl)phenyl]-N^5-carbamoyl-L-ornithinamide] displayed an IC50 in data set [1] of 3.22 nM. In data set [2], the Papp B→A at 2 h was found to be 0.18 ×10⁻⁶ cm/s and the efflux ratio at 2 h turned out to be 1.9.

On to `CC(C)[C@H](NC(=O)CCNC(=O)[C@@H](N)CCN(C(=O)CO)[C@@H](c1nc(-c2cc(F)ccc2F)cn1Cc1ccccc1)C(C)(C)C)C(=O)N[C@@H](CCCNC(N)=O)C(=O)Nc1ccc(CC(=O)NCCN2C(=O)CC(SC[C@H](N)C(=O)O)C2=O)cc1` (stereo partly drawn) [Example 69, N-{(2S)-2-Amino-4-[{(1R)-1-[1-benzyl-4-(2,5-difluorophenyl)-1H-imidazol-2-yl]-2,2-dimethylpropyl}(glycoloyl)amino]butanoyl}-beta-alanyl-L-valyl-N-[4-(2-{[2-(3-{[(2R)-2-amino-2-carboxyethyl]sulphanyl}-2,5-dioxopyrrolidin-1-yl)ethyl]amino}-2-oxoethyl)phenyl]-N^5-carbamoyl-L-ornithinamide], for which 4.82 nM corresponded to half-maximal inhibition in data set [1] (IC50). For the same compound, in data set [2], the Papp B→A at 2 h was 0.15 ×10⁻⁶ cm/s and the efflux ratio at 2 h amounted to 2.

Compound `C[C@H](NC(=O)CCNC(=O)[C@@H](N)CCN(C(=O)CO)[C@@H](c1nc(-c2cc(F)ccc2F)cn1Cc1ccccc1)C(C)(C)C)C(=O)N[C@@H](CCCNC(N)=O)C(=O)Nc1ccc(CC(=O)NCCN2C(=O)CC(SC[C@H](N)C(=O)O)C2=O)cc1` (stereo partly drawn) [Example 70, N-{(2S)-2-Amino-4-[{(1R)-1-[1-benzyl-4-(2,5-difluorophenyl)-1H-imidazol-2-yl]-2,2-dimethylpropyl}(glycoloyl)amino]butanoyl}-beta-alanyl-L-alanyl-N-[4-(2-{[2-(3-{[(2R)-2-amino-2-carboxyethyl]sulphanyl}-2,5-dioxopyrrolidin-1-yl)ethyl]amino}-2-oxoethyl)phenyl]-N^5-carbamoyl-L-ornithinamide] gave a concentration for half-maximal inhibition (IC50) in data set [1] of 3.18 nM. Further, in data set [2], the Papp B→A at 2 h turned out to be 0.16 ×10⁻⁶ cm/s and the efflux ratio at 2 h turned out to be 1.9.

In data set [1], `CC(C)(C)[C@H](c1nc(-c2cc(F)ccc2F)cn1Cc1ccccc1)N(CC[C@H](N)C(=O)NCCOCCOCCOCCC(=O)O)C(=O)CO.O=C(O)C(F)(F)F` [Example 71, (15S,19R)-15-Amino-19-[1-benzyl-4-(2,5-difluorophenyl)-1H-imidazol-2-yl]-18-glycoloyl-20,20-dimethyl-14-oxo-4,7,10-trioxa-13,18-diazahenicosan-1-oic acid/trifluoroacetic acid (1:1)] came in with an IC50 of 1.22 nM. Further, in data set [2], the Papp B→A at 2 h came out at 28 ×10⁻⁶ cm/s and the efflux ratio at 2 h is 280.

In data set [1], `CC(C)[C@H](NC(=O)CCNC(=O)[C@@H](N)CCN(C(=O)CO)[C@@H](c1nc(-c2cc(F)ccc2F)cn1Cc1ccccc1)C(C)(C)C)C(=O)N[C@@H](CCCNC(N)=O)C(=O)O.O=C(O)C(F)(F)F` [Example 72, N-{(2S)-2-Amino-4-[{(1R)-1-[1-benzyl-4-(2,5-difluorophenyl)-1H-imidazol-2-yl]-2,2-dimethylpropyl}(glycoloyl)amino]butanoyl}-beta-alanyl-L-valyl-N^5-carbamoyl-L-ornithine/trifluoroacetic acid (1:1)] yielded a 50% inhibitory concentration (IC50) of 4.85 nM. Besides, in data set [2], the Papp B→A at 2 h worked out at 0.25 ×10⁻⁶ cm/s and the efflux ratio at 2 h is 2.1.

Take `C[C@H](NC(=O)CCNC(=O)[C@@H](N)CCN(C(=O)CO)[C@@H](c1nc(-c2cc(F)ccc2F)cn1Cc1ccccc1)C(C)(C)C)C(=O)N[C@@H](CCCNC(N)=O)C(=O)O.O=C(O)C(F)(F)F` [Example 73, N-{(2S)-2-Amino-4-[{(1R)-1-[1-benzyl-4-(2,5-difluorophenyl)-1H-imidazol-2-yl]-2,2-dimethylpropyl}(glycoloyl)amino]butanoyl}-beta-alanyl-L-alanyl-N^5-carbamoyl-L-ornithine/trifluoroacetic acid (1:1)]: in data set [1], half-maximal inhibition (IC50) required 4.52 nM. In data set [2], the Papp B→A at 2 h was found to be 0.46 ×10⁻⁶ cm/s and the efflux ratio at 2 h is 2.7.

In the case of `CC(C)(C)[C@H](c1nc(-c2cc(F)ccc2F)cn1Cc1ccccc1)N(CC[C@H](N)C(=O)NCCC(=O)N[C@@H](Cc1ccc(N)cc1)C(=O)O)C(=O)CO.O=C(O)C(F)(F)F.O=C(O)C(F)(F)F` [Example 74, N-{(2S)-2-Amino-4-[{(1R)-1-[1-benzyl-4-(2,5-difluorophenyl)-1H-imidazol-2-yl]-2,2-dimethylpropyl}(glycoloyl)amino]butanoyl}-beta-alanyl-4-amino-L-phenylalanine/trifluoroacetic acid (1:2)], half-maximal inhibition in data set [1] (IC50) was put at 6.13 nM. In data set [2], the Papp B→A at 2 h came to 2.6 ×10⁻⁶ cm/s and the efflux ratio at 2 h was determined as 15.

`CC(C)(C)[C@H](c1nc(-c2cc(F)ccc2F)cn1Cc1ccccc1)N(CC[C@H](N)C(=O)O)C(=O)CO.O=C(O)C(F)(F)F` [Example 76, (2S)-2-Amino-4-[{(1R)-1-[1-benzyl-4-(2,5-difluorophenyl)-1H-imidazol-2-yl]-2,2-dimethylpropyl}(glycoloyl)amino]butanoic acid/trifluoroacetic acid (1:1)] gave an IC50 in data set [1] of 2.33 nM. Further, in data set [2], the apparent permeability from basolateral to apical (Papp B→A) at 2 h is 5.5 ×10⁻⁶ cm/s and the efflux ratio at 2 h turned out to be 27.

In data set [1], `CC(C)(C)[C@H](c1nc(-c2cc(F)ccc2F)cn1Cc1ccccc1)N(CC[C@H](N)CN)C(=O)CO.O=C(O)C(F)(F)F` [Example 78, Trifluoroacetic acid/N-{(1R)-1-[1-benzyl-4-(2,5-difluorophenyl)-1H-imidazol-2-yl]-2,2-dimethylpropyl}-N-[(3S)-3,4-diaminobutyl]-2-hydroxyacetamide (1:1)] gave a 50% inhibitory concentration (IC50) of 4.95 nM. In data set [2], the Papp B→A at 2 h was determined as 14 ×10⁻⁶ cm/s and the efflux ratio at 2 h was found to be 44.

A word on the IC50: it is the concentration needed to halve the response being measured. A higher IC50 goes with weaker potency in that assay. The term Papp B→A denotes the apparent permeability from the basolateral to the apical side of a cell layer. What is called efflux ratio is the permeability from basolateral to apical divided by that in the opposite direction, in the common usage.
